Holding throughout (format): functional
The test system of assay [1] is ECa-109 cell line. Description: Cytotoxicity ratio was evaluated against tumor cell line ECa-109 (Human esophagus cancer) after 72 hr incubation.
The subject of assay [2] is SK-OV-3. Description: Cytotoxicity ratio was evaluated against human tumor cell line SKOV3 (Human ovarian cancer) after 72 hr incubation.
Assay [3] deals with WiDr. Description: Cytotoxicity ratio was evaluated against human tumor cell line WIDR (Human colon cancer) after 72 hr incubation.
Assay [4] concerns the target Tubulin alpha chain (Sus scrofa) (UniProt P02550). Kind of assay: Effective dose which causes polymerization of 50% of the tubulin present at 37 degree C in Microtubule assembly assay.
In assay [5] the test system is MCF7. Kind of assay: Cytotoxicity ratio was evaluated against human tumor cell line MCF-7 (Human breast cancer) after 72 h incubation.
The subject of assay [6] is ECa-109 cell line. Description: Cytotoxicity ratio was evaluated against tumor cell line ECa-109 (Human esophagus cancer) after 72 hr incubation relative to paclitaxel (ED50 = […]).
Assay [7] has as its system WiDr. Description: Cytotoxicity ratio was evaluated against human tumor cell line WIDR (Human colon cancer) after 72 hr incubation relative to paclitaxel (ED50 = […]).
Assay [8] deals with SK-OV-3. Description: Cytotoxicity ratio was evaluated against human tumor cell line SKOV3 (Human ovarian cancer) after 72 hr incubation relative to paclitaxel (ED50 = […]).
In assay [9] the test system is MCF7. Description: Cytotoxicity ratio was evaluated against human tumor cell line MCF-7 (Human breast cancer) after 72 hr incubation relative to paclitaxel (ED50 = […]).

Five compounds from ChEMBL document CHEMBL1133418, “Synthesis and biological evaluation of novel 9-functional heterocyclic coupled 7-deoxy-9-dihydropaclitaxel analogue” (2000) can be followed below.

Chain of Tubulin alpha chain (Sus scrofa) (P02550 whole entry, looked up): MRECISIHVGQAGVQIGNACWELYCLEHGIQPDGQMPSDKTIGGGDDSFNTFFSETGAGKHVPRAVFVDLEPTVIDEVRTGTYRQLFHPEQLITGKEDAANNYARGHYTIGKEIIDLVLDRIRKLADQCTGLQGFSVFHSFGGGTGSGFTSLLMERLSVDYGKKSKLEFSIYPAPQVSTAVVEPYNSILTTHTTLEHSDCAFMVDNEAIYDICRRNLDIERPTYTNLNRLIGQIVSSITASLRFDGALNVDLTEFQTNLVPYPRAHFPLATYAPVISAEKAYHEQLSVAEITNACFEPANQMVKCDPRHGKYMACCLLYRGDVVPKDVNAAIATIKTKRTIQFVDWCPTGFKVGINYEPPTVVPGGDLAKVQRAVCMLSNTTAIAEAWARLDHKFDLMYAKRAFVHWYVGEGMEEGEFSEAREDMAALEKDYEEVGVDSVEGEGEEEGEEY

With `CC(=O)O[C@H]1C(=O)[C@@]2(C)[C@H]([C@H](OC(=O)c3ccccc3)[C@]3(O)C[C@H](OC(=O)[C@H](O)[C@@H](NC(=O)c4ccccc4)c4ccccc4)C(C)=C1C3(C)C)[C@]1(OC(C)=O)CO[C@@H]1C[C@@H]2O` [PACLITAXEL], the Ratio in the assay on ECa-109 cell line [1], in the assay with SK-OV-3 [2], in the assay with WiDr [3] and with MCF7 [5] was 1 in each case. Moreover, the ED50 in [4] was found to be 400 nM.
Consider `CC(=O)O[C@@H]1C2=C(C)[C@@H](OC(=O)[C@H](O)[C@@H](NC(=O)c3ccccc3)c3ccccc3)C[C@@](O)([C@@H](OC(=O)c3ccccc3)C3[C@@](C)(CC[C@H]4OC[C@@]34OC(C)=O)[C@H]1OC(=O)CCC(=O)OC[C@H]1O[C@@H](n3cc(C)c(=O)[nH]c3=O)C[C@@H]1N=[N+]=[N-])C2(C)C` (stereo not given in full), for which the Ratio in the assay with ECa-109 cell line [6] came out at 3.54; with WiDr [7], 2.62; in the assay with SK-OV-3 [8] it was 3.41; in the assay on MCF7 [9], 3.13. In assay [4], this compound came in with an ED50 greater than 20000 nM.
The corresponding values for `CC(=O)O[C@@H]1C2=C(C)[C@@H](OC(=O)[C@H](O)[C@@H](NC(=O)c3ccccc3)c3ccccc3)C[C@@](O)([C@@H](OC(=O)c3ccccc3)C3[C@@](C)(CC[C@H]4OC[C@@]34OC(C)=O)[C@H]1OC(=O)CCC(=O)OC[C@H]1O[C@@H](n3ccc(NC(=O)c4ccccc4)nc3=O)C[C@@H]1O)C2(C)C` (stereo not given in full) are 1.03, 2.43, 1.98, 1.63 and 900 nM.
On to `CC(=O)O[C@@H]1C2=C(C)[C@@H](OC(=O)[C@H](O)[C@@H](NC(=O)c3ccccc3)c3ccccc3)C[C@@](O)([C@@H](OC(=O)c3ccccc3)C3[C@@](C)(CC[C@H]4OC[C@@]34OC(C)=O)[C@H]1OC(=O)CCC(=O)OC[C@H]1O[C@@H](n3cc(Br)c(=O)[nH]c3=O)[C@H](O)[C@@H]1O)C2(C)C` (stereo not given in full), for which the Ratio in the assay on ECa-109 cell line [6] was found to be 0.16; in the assay on WiDr [7] it was 3.87; with SK-OV-3 [8], 4.06; in the assay on MCF7 [9], 2.64. The compound further showed an ED50 in assay [4] greater than 15000 nM.
Take `CC(=O)O[C@@H]1C2=C(C)[C@@H](OC(=O)[C@H](O)[C@@H](NC(=O)c3ccccc3)c3ccccc3)C[C@@](O)([C@@H](OC(=O)c3ccccc3)C3[C@@](C)(CC[C@H]4OC[C@@]34OC(C)=O)[C@H]1OC(=O)CCC(=O)OC[C@H]1O[C@@H](n3cnc4c(Cl)ncnc43)[C@H](O)[C@@H]1O)C2(C)C` (stereo not given in full): the Ratio stood at 0.18 in the assay with ECa-109 cell line [6], 2.16 with WiDr [7], 2.24 in the assay with SK-OV-3 [8] and 3.68 with MCF7 [9]. Also, in [4], the ED50 is greater than 15000 nM.
